Source: ChEMBL document CHEMBL5543068, “Mitochondrial targeting derivatives of honokiol enhanced selective antitumor activity in NCI-H446 cells and decreased in vivo toxicity in Caenorhabditis elegans” (Eur J Med Chem, 2024)
The source made the active and inactive calls. The rule behind the calls is not given here.

Key:
[1] = Cytotoxicity against human HL7702 cells assessed as reduction in cell viability incubated for 48 hrs by MTT assay; type: toxicity, cell-based; settings: HL7702 (L02) cells
[2] = Cytotoxicity against HBE (human bronchial epithelial) cells assessed as reduction in cell viability incubated for 48 hrs by MTT assay; type: toxicity, cell-based
[3] = tested on: A549; test: Antiproliferative activity against human A549 cells assessed as reduction in cell viability incubated for 48 hrs by MTT assay; type: functional, cell-based; settings: A549, 48 h
[4] = tested on: NCI-H446; test: Antiproliferative activity against human NCI-H446 cells assessed as reduction in cell viability incubated for 48 hrs by MTT assay; type: functional, cell-based; settings: for IC50: NCI-H446, 48 h
[5] = tested on: HepG2; test: Antiproliferative activity against human HepG2 cells assessed as reduction in cell viability incubated for 48 hrs by MTT assay; type: functional, cell-based; settings: HepG2, 48 h
[6] = Selectivity index, ratio of IC50 for cytotoxicity against HBE (human bronchial epithelial) cells to IC50 for antiproliferative activity against human NCI-H446 cells; type: toxicity, cell-based; settings: HBE (human bronchial epithelial) cells versus NCI-H446 cells, read-out: Ratio IC50
[7] = tested on: NCI-H446; test: Induction of apoptosis in human NCI-H446 cells assessed as late apoptotic cells at 1 uM incubated for 24 hrs by Annexin V-FITC/PI staining based flow cytometric analysis (reference value: 1.71 %); type: functional
[8] = Toxicity in Caenorhabditis elegans assessed as reduction in movement speed at 100 uM measured after 72 hrs by […] microscopic analysis
[9] = tested on: NCI-H446; test: Induction of apoptosis in human NCI-H446 cells assessed as late apoptotic cells at 2 uM incubated for 24 hrs by Annexin V-FITC/PI staining based flow cytometric analysis (reference value: 1.71 %); type: functional
[10] = tested on: NCI-H446; test: Induction of apoptosis in human NCI-H446 cells assessed as necrotic cells at 0.5 uM incubated for 24 hrs by Annexin V-FITC/PI staining based flow cytometric analysis (reference value: 1.17 %); type: functional
[11] = tested on: NCI-H446; test: Induction of apoptosis in human NCI-H446 cells assessed as late apoptotic cells at 0.25 uM incubated for 24 hrs by Annexin V-FITC/PI staining based flow cytometric analysis (reference value: 1.71 %); type: functional
[12] = tested on: NCI-H446; test: Induction of ROS production in human NCI-H446 cells assessed as increase in intracellular ROS level at 2 uM incubated for 24 hrs by DCFH-DA staining based flow cytometric analysis; type: functional, cell-based
[13] = tested on: NCI-H446; test: Induction of apoptosis in human NCI-H446 cells assessed as viable cells at 0.25 uM incubated for 24 hrs by Annexin V-FITC/PI staining based flow cytometric analysis (reference value: 96.8 %); type: functional; settings: read-out: Activity
[14] = Toxicity in Caenorhabditis elegans assessed as reduction in growth by measuring body length at 20 to 100 uM measured after 72 hrs by […] microscopic analysis; settings: dose 20-100 µM
[15] = tested on: NCI-H446; test: Induction of apoptosis in human NCI-H446 cells assessed as early apoptotic cells at 2 uM incubated for 24 hrs by Annexin V-FITC/PI staining based flow cytometric analysis (reference value: 0.37 %); type: functional
[16] = tested on: NCI-H446; test: Induction of apoptosis in human NCI-H446 cells assessed as necrotic cells at 2 uM incubated for 24 hrs by Annexin V-FITC/PI staining based flow cytometric analysis (reference value: 1.17 %); type: functional
[17] = tested on: NCI-H446; test: Induction of apoptosis in human NCI-H446 cells assessed as viable cells at 1 uM incubated for 24 hrs by Annexin V-FITC/PI staining based flow cytometric analysis (reference value: 96.8 %); type: functional; settings: read-out: Activity
[18] = tested on: NCI-H446; test: Induction of apoptosis in human NCI-H446 cells assessed as early apoptotic cells at 0.25 uM incubated for 24 hrs by Annexin V-FITC/PI staining based flow cytometric analysis (reference value: 0.37 %); type: functional
[19] = tested on: NCI-H446; test: Induction of apoptosis in human NCI-H446 cells assessed as necrotic cells at 0.25 uM incubated for 24 hrs by Annexin V-FITC/PI staining based flow cytometric analysis (reference value: 1.17 %); type: functional
[20] = tested on: NCI-H446; test: Induction of apoptosis in human NCI-H446 cells assessed as viable cells at 0.5 uM incubated for 24 hrs by Annexin V-FITC/PI staining based flow cytometric analysis (reference value: 96.8 %); type: functional; settings: read-out: Activity
[21] = tested on: Cell membrane; test: Induction of mitochondrial membrane potential loss in human NCI-H446 cells at 0.25 uM incubated for 24 hrs by JC-1 staining based flow cytometric analysis; type: cell membranes
[22] = tested on: NCI-H446; test: Induction of apoptosis in human NCI-H446 cells assessed as viable cells at 2 uM incubated for 24 hrs by Annexin V-FITC/PI staining based flow cytometric analysis (reference value: 96.8 %); type: functional; settings: read-out: Activity
[23] = tested on: NCI-H446; test: Induction of apoptosis in human NCI-H446 cells assessed as early apoptotic cells at 1 uM incubated for 24 hrs by Annexin V-FITC/PI staining based flow cytometric analysis (reference value: 0.37 %); type: functional
[24] = tested on: NCI-H446; test: Induction of apoptosis in human NCI-H446 cells assessed as necrotic cells at 1 uM incubated for 24 hrs by Annexin V-FITC/PI staining based flow cytometric analysis (reference value: 1.17 %); type: functional
[25] = tested on: NCI-H446; test: Induction of apoptosis in human NCI-H446 cells assessed as early apoptotic cells at 0.5 uM incubated for 24 hrs by Annexin V-FITC/PI staining based flow cytometric analysis (reference value: 0.37 %); type: functional
[26] = tested on: NCI-H446; test: Induction of apoptosis in human NCI-H446 cells assessed as late apoptotic cells at 0.5 uM incubated for 24 hrs by Annexin V-FITC/PI staining based flow cytometric analysis (reference value: 1.71 %); type: functional
[27] = tested on: NCI-H446; test: Induction of apoptosis in human NCI-H446 cells assessed as decrease in caspase-3 level at 0.5 to 2 uM by Western blot analysis; type: functional, cell-based; settings: dose 0.5-2 µM
[28] = tested on: NCI-H446; test: Induction of ROS production in human NCI-H446 cells assessed as increase in intracellular ROS level incubated for 24 hrs by DCFH-DA staining based flow cytometric analysis; type: functional, cell-based; settings: dose 0.25-2 µM
[29] = Drug uptake in human NCI-H446 cells assessed as green fluorescence at 2.5 uM incubated for 5 hrs by confocal microscopic analysis; type: ADME, cell-based; settings: nci-h446, 5 h
[30] = tested on: NCI-H446; test: Antiproliferative activity against human NCI-H446 cells assessed as reduction in cell viability incubated for 24 to 72 hrs by MTT assay; type: functional, cell-based; settings: dose 0.5-8 µM, time 24-72 hrs
[31] = tested on: NCI-H446; test: Induction of apoptosis in human NCI-H446 cells assessed as increase in cleaved caspase-3 level at 0.5 to 2 uM by Western blot analysis; type: functional, cell-based; settings: dose 0.5-2 µM
[32] = Drug localization in human NCI-H446 cell mitochondria at 2.5 uM incubated for 5 hrs by MitoTracker Red CMXRos dye based confocal microscopic analysis; type: ADME; settings: nci-h446, 5 h
[33] = tested on: NCI-H446; test: Induction of apoptosis in human NCI-H446 cells assessed as decrease in caspase-9 level at 0.5 to 2 uM by Western blot analysis; type: functional, cell-based; settings: dose 0.5-2 µM
[34] = tested on: NCI-H446; test: Antiproliferative activity against human NCI-H446 cells assessed as reduction in cell viability at 0.5 to 8 uM by MTT assay; type: functional, cell-based; settings: dose 0.5-8 µM, time 24-72 hrs, TDE = time-dependent effect
[35] = tested on: NCI-H446; test: Synergistic antiproliferative activity against human NCI-H446 cells assessed as reduction in cell viability incubated for 48 hrs in presence of cisplatin by MTT assay; type: functional, cell-based; settings: dose 0.5-8 µM
[36] = tested on: NCI-H446; test: Cell cycle arrest in human NCI-H446 cells assessed as increase in subG1 phase cells at 0.25 to 2 uM incubated for 24 hrs by PI staining based flow cytometric analysis; type: functional; settings: dose 0.25-2 µM
[37] = Induction of apoptosis in HBE (human bronchial epithelial) cells assessed as change in nuclei morphology at 1 to 2 uM incubated for 24 hrs by DAPI staining based fluorescence inverted microscopic analysis; type: toxicity, cell-based; settings: dose 1-2 µM
[38] = Toxicity in Caenorhabditis elegans assessed as reduction in movement speed at 20 to 100 uM measured after 72 hrs by […] microscopic analysis; settings: dose 20-100 µM
[39] = tested on: NCI-H446; test: Induction of apoptosis in human NCI-H446 cells assessed as increase in cleaved caspase-9 level at 0.5 to 2 uM by Western blot analysis; type: functional, cell-based; settings: dose 0.5-2 µM
[40] = tested on: NCI-H446; test: Cell cycle arrest in human NCI-H446 cells assessed as G0/G1 phase cells incubated for 24 hrs by PI staining based flow cytometric analysis (reference value: 52.37%); type: functional
[41] = tested on: NCI-H446; test: Induction of apoptosis in human NCI-H446 cells assessed as change in cellular nuclei morphology at 1 uM incubated for 24 hrs by DAPI staining based fluorescence inverted microscopic analysis; type: functional, cell-based
[42] = tested on: NCI-H446; test: Induction of apoptosis in human NCI-H446 cells assessed as decrease in PARP level at 0.5 to 2 uM by Western blot analysis; type: functional, cell-based; settings: dose 0.5-2 µM
[43] = tested on: NCI-H446; test: Cell cycle arrest in human NCI-H446 cells assessed as decrease in S phase cells at 0.25 to 2 uM incubated for 24 hrs by PI staining based flow cytometric analysis; type: functional; settings: dose 0.25-2 µM
[44] = tested on: Cell membrane; test: Induction of mitochondrial membrane potential loss in human NCI-H446 cells incubated for 24 hrs by JC-1 staining based flow cytometric analysis; type: cell membranes; settings: dose 0.25-2 µM
[45] = tested on: CDDP-resistant A549 cell; test: Antiproliferative activity against human CDDP-resistant A549 cells assessed as reduction in cell viability at 0.5 to 16 uM incubated for 48 hrs by MTT assay; type: functional, cell-based; settings: dose 0.5-16 µM
[46] = tested on: CDDP-resistant A549 cell; test: Sensitization of cisplatin-induced antiproliferative activity against human CDDP-resistant A549 cells assessed as inhibition of cell growth at 0.25 uM incubated for 48 hrs by MTT assay; type: functional, cell-based
[47] = Toxicity in Caenorhabditis elegans assessed as reduction in growth by measuring body length at 50 to 100 uM measured after 72 hrs by […] microscopic analysis; settings: dose 50-100 µM

C=CCc1ccc(OC)c(-c2ccc(OCCCOC(=O)Cc3c4[n+](cc5c(OC)c(OC)ccc35)CCc3cc5c(cc3-4)OCO5)c(CC=C)c2)c1
IC50 at 48 h [1]: 4.76 µM
IC50 at 48 h [2]: 21.6 µM
IC50 [3]: 7.74 µM
IC50 [4]: 3.53 µM
IC50 [5]: 3.14 µM
selectivity ratio [6]: 3.53

C=CCc1ccc(O)c(-c2ccc(O)c(CC=C)c2)c1 [HONOKIOL]
Activity [7]: 12.8%
Activity [8]: Toxic
Activity [9]: 13%
IC50 at 48 h [1]: 47.9 µM
IC50 at 48 h [2]: 43.7 µM
IC50 [3]: 48.1 µM
Activity [10]: 1.53%
Activity [11]: 2.04%
IC50 [4]: 44.5 µM
IC50 [5]: 41.4 µM
Activity [12]: inactive
viability at 0.25 µM [13]: 95.4%
Activity [14]: Toxic
Activity [15]: 2.61%
Activity [16]: 15.3%
viability at 1 µM [17]: 73.3%
Activity [18]: 0.38%
Activity [19]: 2.17%
viability at 0.5 µM [20]: 96%
Activity [21]: inactive
viability at 2 µM [22]: 69.1%
Activity [23]: 1.1%
Activity [24]: 12.8%
Activity [25]: 0.47%
Activity [26]: 1.98%

C=CCc1ccc(OCCC)c(-c2ccc(OCCC[n+]3ccc(/C=C/c4c[nH]c5ccccc45)cc3)c(CC=C)c2)c1.[Br-]
Activity [7]: 95.4%
Activity [27]: Active
Activity [28]: Dose-Dependent Effect
Activity [9]: 95.4%
IC50 at 48 h [1]: 2.62 µM
IC50 at 48 h [2]: 23.1 µM
IC50 [3]: 4.6 µM
Activity [10]: 0.08%
Drug uptake [29]: Active
Activity [30]: Dose-Dependent Effect
Activity [11]: 57.4%
Activity [4]: Dose-Dependent Effect
IC50 [4]: 2.87 µM
Activity [31]: Active
IC50 [5]: 2.48 µM
Drug uptake [32]: Active
Activity [33]: Active
viability at 0.25 µM [13]: 2.58%
Activity [15]: 2.19%
Activity [34]: Tde
Activity [16]: 0.45%
Activity [35]: Dose-Dependent Effect
viability at 1 µM [17]: 1.32%
Activity [36]: Active
Activity [18]: 39.9%
Activity [19]: 0.14%
selectivity ratio [6]: ~10
Activity [37]: Non-Toxic
viability at 0.5 µM [20]: 1.75%
Activity [38]: Non-Toxic
Activity [39]: Active
Activity [40]: 68.31%
Activity [41]: Active
Activity [42]: Active
viability at 2 µM [22]: 1.97%
Activity [23]: 2.12%
Activity [43]: Active
Activity [44]: Dose-Dependent Effect
Activity [24]: 0.13%
Activity [25]: 10.1%
Activity [26]: 88.1%
Activity [45]: inactive
Activity [46]: Active
Activity [47]: Non-Toxic
